Key:
[1] = 1H NMR qualitative studies for free drug; assay type: physicochemical; conditions: D2O; drug peaks evident in CDCl3
Protocol: To determine the absence of free drug in the outer aqueous environment, qualitative studies were conducted. Qualitative proton nuclear magnetic resonance (NMR) studies were conducted with Varian 400 MHz NMR. Deuterated chloroform and water as solvent systems were used to resuspend the formulation and NMR studies were performed.

[2] = Ocular tissue distribution of RX-10045 / RX-10008 (LC-MS/MS); assay type: in vivo, rabbit; conditions: topical ocular RX-10045 formulations 4×/day for 5 days, rabbits
Protocol: A study was conducted in rabbits to test the tolerance and ocular tissue distribution of two nanomicellar formulations of compound 1001 (RX10045) against matching placebos (Table 7a and 7b) and balanced saline solution (BSS). Healthy New Zealand female white rabbits (2-3 kg) were used for this study. One drop (approximately 35 μL) of study drug was applied o.d. 4×/day at two hour intervals for 5 days. One drop of BSS was applied to the contralateral eye.
Selected ocular fluids/tissues (aqueous humor, vitreous humor, conjunctiva, cornea, iris-ciliary body, lens, retina/choroid, and sclera) collected from two rabbits each in the RX-10045 (0.15% in HCO-60, 0.1% in HCO-40) treatment groups, and from one rabbit in each of the matching placebo groups, were assayed for compound 1001 and another resolvin by liquid chromatography-tandem mass spectrometry (LC-MS/MS). Warfarin-d5 and 5-HDA were used as internal standards for the analysis of RX-10045 and its active metabolite, RX-10008, respectively, in aqueous humor and vitreous humor. For the other ocular tissues (solid tissues), warfarin-d5 and phenyl acetic acid-d5 (PAA-d5) were used as the internal standards for compound 1001 and RX-10008, respectively. The analytical range for the solid tissues were 0.125-100 ng. The results of the solid tissue analyses were converted to ng/g by correcting for the amount of tissue analyzed.

- Free drug when MNF is resuspended in aqueous solution (qualitative proton NMR) [1]: not freely available
Structure (SMILES): C#CC[C@@H](O)/C=C/C=C/C#C[C@@H](O)CCCC(=O)OC(C)C [compound 1001]
- Compound 1001 in the majority of ocular tissues [2]: either not detected or was below the quantitation limit of the assay

— patent US20200009137A1, “TOPICAL FORMULATIONS AND USES THEREOF” (SUN PHARMA GLOBAL FZE, priority 2015, published 2020)
